Assay results: US9737542B2, “Pyrrolotriazine kinase inhibitors” (BRISTOL-MYERS SQUIBB COMPANY, priority 2013, dated 2017)
pIC50: −log10 of the molar value.

Experiments:
[1] = system: mice (pain response, formalin paw test); test: formalin paw test; format: in vivo, mouse; details: % response relative to gabapentin 200 mg/kg
Description: AAK1 homozygous (−/−) and their wild-type (+/+) littermates were tested using the formalin paw test in order to assess their acute and tonic nociceptive responses. For these tests, Automatic Nociception Analyzers (purchased from the Ozaki lab at University of California, San Diego) were used. A metal band was placed around the left hind paw of each mouse 30 minutes prior to testing. After the 30-minute acclimation period, 20 μl of 5% formalin is subcutaneously injected in the dorsal surface of the left hind paw. Mice were individually housed in cylindrical chambers for 45 minutes. Fresh 5% formalin solution was prepared by diluting formaldehyde (Formalde-fresh 20%, Fisher Scientific, Fair Lawn, N.J.) with distilled water. Investigatory compounds were administered 30 minutes prior to formalin injection.
A computer recorded flinches per minute, total flinches for phase I (acute phase=first 8 minutes), and total flinches for phase II (tonic phase=time between minutes 20-40 or 10-60 minutes for drug studies) through an electromagnetic field. See Yaksh T L, Ozaki G, McCumber D, Rathbun M, Svensson C, Malkmus S, Yaksh M C. An automated flinch detecting system for use in the formalin nociceptive bioassay. J Appl Physiol., 2001; 90:2386-402.
The same test was used to confirm that the administration of an AAK1 inhibitor can also affect pain response. […]

[2] = target: GST-Xa-hAAK1 (Homo sapiens (Human), UniProt Q2M2I8); test: AAK1 Kinase Assay; format: biochemical; details: ATP 22 μM, 3 hours at room temperature
GST-Xa-hAAK1, sequence (Q2M2I8 whole entry): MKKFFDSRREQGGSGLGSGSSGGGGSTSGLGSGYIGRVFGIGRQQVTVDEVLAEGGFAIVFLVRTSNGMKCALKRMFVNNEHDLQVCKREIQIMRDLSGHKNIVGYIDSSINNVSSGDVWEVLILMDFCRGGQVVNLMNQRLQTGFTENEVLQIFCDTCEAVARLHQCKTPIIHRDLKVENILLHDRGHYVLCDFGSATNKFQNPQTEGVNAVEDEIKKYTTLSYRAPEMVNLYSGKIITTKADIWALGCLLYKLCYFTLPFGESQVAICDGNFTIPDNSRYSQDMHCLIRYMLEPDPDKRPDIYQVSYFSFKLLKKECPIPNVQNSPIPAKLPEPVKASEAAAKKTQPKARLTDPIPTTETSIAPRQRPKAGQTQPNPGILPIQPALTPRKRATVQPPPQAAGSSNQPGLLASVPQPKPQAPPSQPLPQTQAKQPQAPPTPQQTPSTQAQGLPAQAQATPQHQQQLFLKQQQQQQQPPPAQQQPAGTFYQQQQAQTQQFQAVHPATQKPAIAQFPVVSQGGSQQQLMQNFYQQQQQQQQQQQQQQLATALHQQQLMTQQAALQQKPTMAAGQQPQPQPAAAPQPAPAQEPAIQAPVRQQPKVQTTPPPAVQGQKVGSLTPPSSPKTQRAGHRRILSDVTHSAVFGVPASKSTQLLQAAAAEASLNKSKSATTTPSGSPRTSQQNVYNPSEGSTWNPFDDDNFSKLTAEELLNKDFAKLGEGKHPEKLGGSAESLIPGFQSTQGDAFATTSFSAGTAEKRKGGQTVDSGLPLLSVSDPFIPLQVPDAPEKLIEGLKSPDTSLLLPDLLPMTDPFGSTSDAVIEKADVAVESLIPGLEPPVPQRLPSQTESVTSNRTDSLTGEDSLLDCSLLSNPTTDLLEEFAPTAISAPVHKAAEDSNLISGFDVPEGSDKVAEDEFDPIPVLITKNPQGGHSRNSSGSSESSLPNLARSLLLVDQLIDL
Description: The assays were performed in U-bottom 384-well plates. […] The reactions were initiated by the combination of bacterially expressed, GST-Xa-hAAK1 with substrates and test compounds. The reactions were incubated at room temperature for 3 hours and terminated by adding 60 μl of 35 mM EDTA buffer to each sample. The reactions were analyzed on the Caliper LabChip 3000 (Caliper, Hopkinton, Mass.) by electrophoretic separation of the fluorescent substrate and phosphorylated product. Inhibition data were calculated by comparison to EDTA quenched control reactions for 100% inhibition and vehicle-only reactions for 0% inhibition. […] Dose response curves were generated to determine the concentration required inhibiting 50% of kinase activity (IC50). Compounds were dissolved at 10 mM in dimethylsulfoxide (DMSO) and evaluated at eleven concentrations. IC50 values were derived by non-linear regression analysis.

Compound | pIC50 ([2]; listed as IC50 ranges) | further results
CC(C)c1nc(-c2cccc(NC(=O)c3cnc4ccc(NC5CCC(N)CC5)nn34)c2)no1 [6-(((1R,4R)-4-aminocyclohexyl)amino)-N-(3-(5-isopropyl-1,2,4-oxadiazol-3-yl)phenyl)imidazo[1,2-b]pyridazine-3-carboxamide] | – | Response ([1]; 60 mg/kg sc): 59%
NCC1(CC(=O)O)CCCCC1 [Gabapentin, reference compound] | – | Response ([1]; 200 mg/kg sc): 73%
NC1CCN(Cc2ccn3ncnc(Nc4cccc(-c5noc(C6CCCCC6)n5)c4)c23)CC1 [Example 22, 5-((4-aminopiperidin-1-yl)methyl)-N-(3-(5-cyclohexyl-1,2,4-oxadiazol-3-yl)phenyl)pyrrolo[2,1-f][1,2,4]triazin-4-amine] | – | pIC50 [2]: 7.85
CCC(C)(C)c1nc(-c2cccc(Nc3ncnn4ccc(CN5CCC(N)CC5)c34)c2)no1 [Example 6, 5-((4-aminopiperidin-1-yl)methyl)-N-(3-(5-(tert-pentyl)-1,2,4-oxadiazol-3-yl)phenyl)pyrrolo[2,1-f][1,2,4]triazin-4-amine] | 7.00 to 8.00 | –
CC(C)C[C@@H](N)C(=O)Nc1cccc(Nc2ncnn3ccc(CN4CCC(N)CC4)c23)c1 [Example 67, (R)-2-amino-N-(3-((5-((4-aminopiperidin-1-yl)methyl)pyrrolo[2,1-f][1,2,4]triazin-4-yl)amino)phenyl)-4-methylpentanamide] | 6.00 to 7.00 | –
CC(C)Oc1cc(Nc2ncnn3ccc(CN4CCC(N)CC4)c23)cc(-c2nnn(C(C)C)n2)c1 [Example 62, 5-((4-aminopiperidin-1-yl)methyl)-N-(3-isopropoxy-5-(2-isopropyl-2H-tetrazol-5-yl)phenyl)pyrrolo[2,1-f][1,2,4]triazin-4-amine] | 6.00 to 7.00 | –
NC1CN(Cc2ccn3ncnc(Nc4cccc(-c5nnc(C6CC6)s5)c4)c23)C1 [Example 25, 5-((3-aminoazetidin-1-yl)methyl)-N-(3-(5-cyclopropyl-1,3,4-thiadiazol-2-yl)phenyl)pyrrolo[2,1-f][1,2,4]triazin-4-amine] | 6.00 to 7.00 | –
Cc1nnc(-c2cccc(Nc3ncnn4ccc(CN5CC(N)C5)c34)c2)s1 [Example 19, 5-((3-aminoazetidin-1-yl)methyl)-N-(3-(5-methyl-1,3,4-thiadiazol-2-yl)phenyl)pyrrolo[2,1-f][1,2,4]triazin-4-amine] | – | pIC50 [2]: 5.67
CC(C)c1nnc(-c2cccc(Nc3ncnn4ccc(CNCCCN)c34)c2)s1 [Example 69, N1-((4-((3-(5-isopropyl-1,3,4-thiadiazol-2-yl)phenyl)amino)pyrrolo[2,1-f][1,2,4]triazin-5-yl)methyl)propane-1,3-diamine] | 6.00 to 7.00 | –
